One compound from US20230001396A1, “COMPOSITIONS AND METHODS FOR CONTROLLED DELIVERY AND PROTECTION OF THERAPEUTIC AGENTS” (Board of Regents, The University of Texas System, priority 2019, published 2023) can be followed below.

This data set is described as follows: Ex vitro study: fluorescence intensity over time in 1×PBS at 37° C. Format: physicochemical. The settings on record: 1×PBS buffer pH 7.4 and 5.4, 37° C. The protocol: Ex vitro study: In order to observe the stability of PLGA microparticles in blood ex vitro study was done by the presence of fluorescence intensity after treating the Cy5@ZIF-8@PLGA particles in 1×PBS buffer. The experiment was performed at two different pH conditions. One was pH 7.4 which is the normal blood pH and another was pH 5.4 which mimic the extreme pH condition of blood in different disease states. The fluorescence intensity was measured at different time intervals. For that four types of samples were prepared every time. In two Eppendorf tubes PBS buffer of pH 7.4 and 5.4 were taken and fluorescence intensity was measured and found no peaks. PLGA microparticles were dissolved in 1×PBS buffer pH 7.4 and pH 5.4 with 10 mins centrifugation in Beckman ultra-small centrifuge machine at 3225×g. Only the dissolved clear supernatant was taken and kept in a hot room (37° C.). In another two Eppendorf tubes, Cy5 dye was dissolved in 1×PBS buffer pH 7.4 and 5.4 and kept under the same conditions as the PLGA microparticles to validate the change of fluorescence intensity of Cy5 dye at 37° C. (FIGS. 8A-8D).
It is believed that the PLGA microparticles further preserve the Cy5 dye and act as a sustained release protective shell which can enhance the release period of model drug Cy5 at blood pH.

In the case of `C[N+]1=C(C=CC=CC=C2N(CCCCCC(=O)O)c3ccc(S(=O)(=O)O)cc3C2(C)C)C(C)(C)c2cc(S(=O)(=O)[O-])ccc21` [Cy5 dye, 3H-Indolium, 2-[5-[1-(5-Carboxypentyl)-1,3-dihydro-3,3-dimethyl-5-sulfo-2H-indol-ylidene]-1,3-pentadien-1-yl]-1-methyl-3,3-dimethyl-5-sulfonate], the “change of fluorescence intensity over time” value is reported as “did not show any regular change of fluorescence intensity over time”.
